Drawing on patent US12636275B2, “Pharmaceutical use of ketoamide-based compound” (Shanghai Institute of Materia Medica, Chinese Academy of …, priority 2020, dated 2026), this text covers IC50 for 21 molecules.

SMILES strings stand for the structures.

For this assay, the target named is T1, 2019-nCoV 3CL protease (Severe acute respiratory syndrome coronavirus 2, UniProt P0DTD1).
T1 construct: against 3CL protease of 2019 novel coronavirus (2019-nCoV 3CL^pro)
The experiment in a line: Inhibitory activity against 3CL protease of 2019 novel coronavirus (FRET). Type of assay: biochemical. Conditions: FRET, 37° C., substrate 20 μM. How it is done: To determine the inhibitory activity of the compound against 3CL protease of 2019 novel coronavirus (2019-nCoV 3CL^pro): the enzyme level inhibitory activity of inhibitors against 3CL protease was determined by fluorescence resonance energy transfer (FRET) technology. In a 96-well plate, 27.5 μL of buffer (20 mM Tris, 100 mM NaCl, 1 mM EDTA, pH 7.4) was added to each well, 2.5 μL compounds ([…], respectively) and 5 μL […] (final concentration was 3 μM) were added at the same time. Incubated at 37° C. for 15 min. Then 15 μL fluorescent substrate diluted with buffer (final concentration was 20 μM) was added. The fluorescence parameters were determined by Ge n5 fluorescence spectrophotometer. The excitation wavelength and emission wavelength were 340 nm and 490 nm respectively, kept at 37° C., and the data were read after 10 min. A negative control was used, in which no compound was added to the control, and the rest was the same.
As to `Cn1c(C(=O)N[C@@H](CC2CCCCC2)C(=O)N[C@@H](C[C@@H]2CCCNC2=O)C(=O)C(=O)NC2CCCCC2)cc2ccccc21` [Example A29, N—((S)-3-cyclohexyl-1-(((S)-4-(cyclohexylamino)-3,4-dione-1-((S)-2-oxopiperidin-3-yl)but-2-yl)amino)-3-cyclohexyl-1-oxopropan-2-yl)-1-methyl-1H-indole-2-carboxamide], the IC50 was found to be 9.8 µM. In other words, the single-digit micromolar range.

`O=C(NCc1ccccc1)C(=O)[C@H](C[C@@H]1CCNC1=O)NC(=O)[C@H](CC1CCCCC1)NC(=O)c1cc2ccccc2s1` [Example A17, N—((S)-1-(((S)-4-(benzylamino)-3,4-dione-1-((S)-2-oxopyrrolidin-3-yl)but-2-yl)amino)-3-cyclohexyl-1-oxopropan-2-yl)-benzothiophene-2-carboxamide]: 12.5 µM corresponded to half-maximal inhibition (IC50).

Turning to `CC(C)C[C@H](NC(=O)c1cc2c(Cl)cc(Cl)cc2[nH]1)C(=O)N[C@@H](C[C@@H]1CCNC1=O)C(=O)C(=O)NC(C)(C)C` [Example A115], inhibition was half-maximal at 6.5 µM (IC50).

`O=C(NCc1ccccc1)C(=O)[C@H](C[C@@H]1CCNC1=O)NC(=O)[C@H](Cc1ccccc1)NC(=O)c1cn2cc(Br)ccc2n1` [Example A156] came in with a half-inhibitory concentration (IC50) of 4.7 µM.

Molecule `O=C(NCc1ccccc1)C(=O)[C@H](C[C@@H]1CCNC1=O)NC(=O)[C@H](Cc1cccc(F)c1)NC(=O)c1ccc2ccccc2n1` [Example A305, N—((S)-1-(((S)-4-(benzylamino)-3,4-dione-1-((S)-2-oxopyrrolidin-3-yl)but-2-yl)amino)-3-(3-fluorophenyl)-1-oxopropan-2-yl)-quinoline-2-carboxamide] registered an IC50 of 8.5 µM.

As to `O=C(NCc1ccc(-c2ccccc2)cc1)C(=O)[C@H](C[C@@H]1CCCNC1=O)NC(=O)[C@H](CC1CCCCC1)NC(=O)c1cc2ccccc2o1` [Example A275], the concentration for half-maximal inhibition (IC50) was determined as 5.8 µM.

Molecule `O=C(NC1CCCCC1)C(=O)[C@H](C[C@@H]1CCCNC1=O)NC(=O)[C@H](Cc1ccccc1)NC(=O)c1cc2ccccc2o1` [Example A59] displayed an IC50 of 23.5 µM. This IC50 is about 4.1-fold higher than that of the molecule before.

In the case of `CC(C)NC(=O)CC[C@H](NC(=O)[C@H](Cc1ccccc1)NC(=O)c1cc2ccccc2[nH]1)C(=O)C(=O)NCC1CCCCC1` [Example A234], the half-inhibitory concentration (IC50) worked out at 10.3 µM.

Consider `O=C(NCc1cc(F)cc(F)c1)C(=O)[C@H](C[C@@H]1CCCNC1=O)NC(=O)[C@H](CC1CCCCC1)NC(=O)c1cc2ccccc2o1` [Example A270, N—((S)-1-(((S)-4-(3,5-difluorobenzylamino)-3,4-dione-1-((S)-2-oxopiperidin-3-yl)but-2-yl)amino)-3-cyclohexyl-1-oxopropan-2-yl)-benzofuran-2-carboxamide], for which the 50% inhibitory concentration (IC50) came out at 7.6 µM.

In turn, `COc1cc(OC)c2cc(C(=O)N[C@@H](Cc3ccccc3)C(=O)N[C@@H](C[C@@H]3CCNC3=O)C(=O)C(=O)NC(C)(C)C)[nH]c2c1` [Example A221, N—((S)-1-(((S)-4-(tert-butylamino)-3,4-dione-1-((S)-2-oxopyrrolidin-3-yl)but-2-yl)amino)-1-oxo-3-phenylpropan-2-yl)-4,6-dimethoxy-1H-indole-2-carboxamide] yielded an IC50 of 5.8 µM. The IC50 values of the last two molecules are within 1.5-fold of each other.

For the molecule `CC(C)NC(=O)CC[C@H](NC(=O)[C@H](Cc1ccccc1)NC(=O)c1cnc2ccccc2n1)C(=O)C(=O)NCc1ccccc1` [Example A238], the IC50 was 4.8 µM.

`CC(C)(C)NC(=O)C(=O)[C@H](C[C@@H]1CCCNC1=O)NC(=O)[C@H](CC1CCCCC1)NC(=O)c1cc2ccccc2[nH]1` [Example A6, N—((S)-1-(((S)-4-(tert-butylamino)-3,4-dione-1-((S)-2-oxopiperidin-3-yl)but-2-yl)amino)-3-cyclohexyl-1-oxopropan-2-yl)-1H-indole-2-carboxamide]: the IC50 was 25.3 µM.

`Cn1c(C(=O)N[C@@H](CC2CCCCC2)C(=O)N[C@@H](C[C@@H]2CCCNC2=O)C(=O)C(=O)NC(C)(C)C)cc2ccccc21` [Example A28, N—((S)-1-(((S)-4-(tert-butylamino)-3,4-dione-1-((S)-2-oxopiperidin-3-yl)but-2-yl)amino)-3-cyclohexyl-1-oxopropan-2-yl)-1-methyl-1H-indole-2-carboxamide]: the half-inhibitory concentration (IC50) was found to be 15.2 µM.

Molecule `CC(C)C[C@H](NC(=O)c1cc2ccccc2[nH]1)C(=O)N[C@@H](C[C@@H]1CCNC1=O)C(=O)C(=O)NCc1ccccc1` [Example A90, N—((S)-1-(((S)-4-(benzylamino)-3,4-dione-1-((S)-2-oxopyrrolidin-3-yl)but-2-yl)amino)-4-methyl-1-oxopentan-2-yl)-1H-indole-2-carboxamide] yielded a concentration for half-maximal inhibition (IC50) of 25.2 µM. This IC50 lies about 1.7-fold higher than the previous one.

`O=C(NCc1ccccc1)C(=O)[C@H](C[C@@H]1CCCNC1=O)NC(=O)[C@H](CC1CCCCC1)NC(=O)c1cc2c(F)c(F)ccc2[nH]1` [Example A269, N—((S)-1-(((S)-4-(benzylamino)-3,4-dione-1-((S)-2-oxopiperidin-3-yl)but-2-yl)amino)-3-cyclohexyl-1-oxopropan-2-yl)-4,5-indole-2-carboxamide] came in with an IC50 of 8.8 µM. This IC50 is about 2.9-fold lower than that of the molecule before.

As to `O=C(NCc1ccccc1)C(=O)[C@H](C[C@@H]1CCCNC1=O)NC(=O)[C@H](CC1CCCCC1)NC(=O)c1cccnn1` [Example A268, N—((S)-1-(((S)-4-(benzylamino)-3,4-dione-1-((S)-2-oxopiperidin-3-yl)but-2-yl)amino)-3-cyclohexyl-1-oxopropan-2-yl)-pyridazine-2-carboxamide], the IC50 was found to be 5.6 µM.

The molecule `O=C(NCc1ccccc1)C(=O)[C@H](C[C@@H]1CCNC1=O)NC(=O)[C@H](Cc1ccc(F)cc1)NC(=O)c1ccc2ccccc2n1` [Example A306, N—((S)-1-(((S)-4-(benzylamino)-3,4-dione-1-((S)-2-oxopyrrolidin-3-yl)but-2-yl)amino)-3-(4-fluorophenyl)-1-oxopropan-2-yl)-quinoline-2-carboxamide] showed an IC50 of 6.7 µM.

`Cc1ccc(CN(C)C(=O)C(=O)[C@H](C[C@@H]2CCCNC2=O)NC(=O)[C@H](CC2CCCCC2)NC(=O)c2cc3ccccc3o2)cc1` [Example A272, N—((S)-1-(((S)-4-(4-methylbenzylmethylamino)-3,4-dione-1-((S)-2-oxopiperidin-3-yl)but-2-yl)amino)-3-cyclohexyl-1-oxopropan-2-yl)-benzofuran-2-carboxamide] came in with a half-maximal inhibitory concentration (IC50) of 4.8 µM.

In the case of `CC(C)(C)NC(=O)C(=O)[C@H](C[C@@H]1CCNC1=O)NC(=O)[C@H](Cc1ccccc1)NC(=O)c1cc2ccccc2o1` [Example A291, N—((S)-1-(((S)-4-(tert-butylamino)-3,4-dione-1-((S)-2-oxopyrrolidin-3-yl)but-2-yl)amino)-3-phenyl-1-oxopropan-2-yl)-benzofuran-2-carboxamide], the midpoint of inhibition, the IC50, lay at 15.2 µM. Compared with the last molecule, the IC50 is about 3.2-fold higher.

Turning to `CC(C)NC(=O)CC[C@H](NC(=O)[C@H](CC1CCCCC1)NC(=O)c1cnc2ccccc2n1)C(=O)C(=O)NCc1ccccc1` [Example A236, N—((S)-1-(((S)-4-(benzyl)-3,4-dione-1-(isopropylamino)-2-yl)amino)-3-(cyclohexyl)-1-oxopropan-2-yl)-quinoxaline-2-carboxamide], the IC50 was found to be 4.5 µM.

As for `O=C(NC1CCCCC1)C(=O)[C@H](C[C@@H]1CCCNC1=O)NC(=O)[C@H](CC1CCCCC1)NC(=O)c1cc2cccc(Br)c2o1` [Example A257, N—((S)-1-(((S)-4-(cyclohexylamino)-3,4-dione-1-((S)-2-oxopiperidin-3-yl)but-2-yl)amino)-3-cyclohexyl-1-oxopropan-2-yl)-6-bromo-benzofuran-2-carboxamide], the IC50 came to 5.2 µM.

One may read the IC50 as the concentration that inhibits the measured activity by half. Lower therefore signals greater potency.
